Read-outs that look alike come from different tables or passages of the source. Marks after values point to notes of the source that are not given here. Some results are limits rather than exact numbers.

Assay [1] concerns HDAC3. The experiment in a line: HDAC3 enzyme activity in nuclear extracts of human tumor xenografts of treated mice. The note with it: first value of the pair HDAC3 and HDAC4, SAHA 25 mg/kg.
Procedure: For the detection of the effect of the drugs on enzyme activity of EZH2 and HDAC of in-vivo tumors, the tumors were separately excised after 6 h of medication, total proteins and nucleoproteins were extracted separately to detect and analyze the activity of the enzyme.
(2) 50 μl of diluted sample solution was added into each reaction well, the plate was sealed with a plate-sealing film and reacted at room temperature for 30 min;
(3) the plate-sealing film was carefully peeled off, the liquid was removed, dried, 150 μl of washing liquid was added into each well, stood for 30 s, then the liquid was removed, repeated twice, and dried;
(4) 2 μl of HDAC enzyme or tumor tissue nuclear extracts was respectively uniformly mixed with 28 μl of diluted sample solution, added into the wells, the plate was sealed with the plate-sealing film and reacted at 37° C. for 60 min;
(5) the plate was washed for three times, wherein the operation was the same as that in (3); and a diluted antibody capture working solution was added into each reaction well according to 50 μl/well and reacted on a shaking bed at room temperature for 60 min;
(6) the plate was washed for four times, wherein the operation was the same as that in (3);
(7) a diluted antibody detection working solution was added into each reaction well according to 50 μl/well and reacted at room temperature for 30 min;
(8) the plate was washed for five times, wherein the operation was the same as that in (3);
a color developing agent was added according to 100 μl/well, and performed dark development for 2-10 min;
(9) 50 μl of stop solution was added into each well for stopping the reaction when the color in the well with a standard product turned blue with medium intensity, the color immediately turned yellow from blue after the addition;
(10) the light absorbance (OD value) of each well was measured in sequence at the wavelength of 450 nm; wherein the measurement should be performed within 15 min after addition of the stop solution; and
For another assay, the system named is VEGFR1. The experiment in a line: Western Blotting, VEGFR1 level. In kind it is cell-based. The note with it: human liver cancer cells, Lewis lung cancer cells and other cancer cell lines and tumor tissues, read-out: Effective concentration (IC50) for inhibition of VEGFR1. From the text: (§1) Antibodies: primary antibodies of VEGFR, EGFR, c-Met, K-Ras, H-Ras, Akt, NF-κB, Cyclin D1, ER-alpha, Dvl-1, Dvl-2, Dvl-3, MMP-9, MMP2, β-catenin, Bcl-2, Bax, p53, p21, E-cadherin and Caspase3 protein, purchased from American Cell Signaling Technology Company and Santa Cruz Technology Company; and H3 acetylation, H4 acetylation and HDAC (HDAC3, HDAC4 and the like) Antibody Sample Kits, purchased from Cell Signaling Technology Company of the U.S.
(§2) (3) polyacrylamide gel electrophoresis (SDS-PAGE): an equal amount of protein lysate sample was used to separate protein, film transfer, and blocking, treated with appropriate primary antibodies and secondary antibodies in sequence, and the film was washed, then the color was developed with ECL kit, and a blot protein band was detected by exposure of an X-ray film; and a Gel-Pro Analyzer was used for quantitative analysis of gray degree, optical density value of the control group and the drug treatment group in various concentration were respectively compared with that of internal reference, the obtained ratios were respectively compared with the control group, and the protein expression level was semi-quantified.

For a further assay, the system named is mouse melanoma cells B16. The assay is described as follows: MTT growth inhibition, B16 cells. It counts as cell-based. The note with it: Mus musculus, 72 h after treatment, read-out: Drug concentration (IC50) at which 50% cancer cells survived.
A further assay deals with Akt. The assay is described as follows: Western Blotting, Akt level. It counts as cell-based. The note with it: human liver cancer cells, Lewis lung cancer cells and other cancer cell lines and tumor tissues, read-out: Effective concentration (IC50) for inhibition of Akt.
From the text: as §1, §2

Assay [2] deals with HDAC3. The experiment in a line: Western Blotting, HDAC3 level. In kind it is cell-based. The following applies: human liver cancer cells, Lewis lung cancer cells and other cancer cell lines and tumor tissues, read-out: Effective concentration (IC50) for inhibition of HDAC3.
From the text: as §1, §2

Another assay deals with c-Met. The experiment in a line: Western Blotting, c-Met level. It counts as cell-based. The following applies: human liver cancer cells, Lewis lung cancer cells and other cancer cell lines and tumor tissues, read-out: Effective concentration (IC50) for inhibition of c-Met.
From the text: as §1, §2

The subject of the next assay is p21. The experiment in a line: Western Blotting, increase of p21 level. It counts as cell-based. The note with it: liver cancer cells, Lewis lung cancer cells and other cancer cell lines and tumor tissue protein lysates, 48 h treatment, read-out: Effective concentration to increase p21 by 50%.
From the text: as §1, §2

In assay [3] the test system is nucleoprotein factor NF-κB (p65)-DNA binding activity. The experiment in a line: NF-κB (p65)-DNA binding activity (EMSA). It counts as cell-based. From the text: The in-vitro experiment of the inhibitory effect against the NF-κB(p65)-DNA binding activity was applied with the chemiluminescent EMSA kit of Pierce Biotechnology Company of the U.S., the experimental method was strictly operated according to the description of the kit and the specific procedure were as follows:
(1) Preparation of EMSA gel
The cells treated by the drugs were extracted by the nucleoprotein extract solution (provided by Beyotime Biotechnology of Institute) to obtain the nucleoprotein extracts, and 10 μg/pipe of the nucleoprotein extracts were respectively used for sample reaction and electrophoresis detection and analysis shown in the following table.
(2) Pre-electrophoresis: the gel was fixed in an electrophoresis tank, which was filled with a 0.5×TBE electrophoresis buffer solution, and electrophoresed under 10V/cm for 90 min. The probe binding reaction was as follows:
The components were added in sequence into the EP pipe according to the above table, uniformly mixed and stood at room temperature for 15 min to eliminate possible non-specific binding of probe and protein. 1 μl of biotin-labeled probe NF-κB was respectively added and stood at room temperature for 20 min.
(4) Film transfer: the process of transferring the nucleoprotein factors and the binding probe on the EMSA gel to the nylon film was electrically transferred under 380 mA in ice bath for 40 min.
(5) Ultraviolet cross-linking: the nylon film was placed under a 254 nm ultraviolet lamp and irradiated for 15 min.
(6) Detection of the biotin-labeled probe by chemiluminescence: the cross-linked nylon film was blocked with the blocking solution, a treated film was subjected to X-ray exposure, developing, and fixation according to the requirements of the kit, and the results were analyzed.

Where [4] appears, read: A549 cells, EMSA, nuclear protein extracts, 48 h, read-out: Effective concentration for 50% inhibition of binding of nucleoprotein factor NF-kB (p65) and DNA.
Where [5] appears, read: MCF7 cells, EMSA, nuclear protein extracts, 48 h, read-out: Effective concentration for 50% inhibition of binding of nucleoprotein factor NF-kB (p65) and DNA.
Where [6] appears, read: MDA-MB231 cells, EMSA, nuclear protein extracts, 48 h, read-out: Effective concentration for 50% inhibition of binding of nucleoprotein factor NF-kB (p65) and DNA.
Setting [7] is: SMMC7721 cells, EMSA, nuclear protein extracts, 48 h, read-out: Effective concentration for 50% inhibition of binding of nucleoprotein factor NF-kB (p65) and DNA.
Where [8] appears, read: human liver cancer cells, Lewis lung cancer cells and other cancer cell lines and tumor tissues, read-out: Effective concentration (IC50) for inhibition of NF-κB-DNA binding activity.

Take `CCNC(=O)CCC(NC(=O)c1cc2cc([N+](=O)[O-])ccc2oc1=O)C(=O)OCC` (stereo in doubt) [Compound If, (R)-2-(6-nitro-2-oxo-2H-benzopyran-3-carboxamido)-5-ethylamino-5-oxo-pentanoic acid ethyl ester]: the “decrease of HDAC3 enzyme activity/inhibition rate” value with HDAC3 [1] (A549 tumor grown in vivo) is listed as 73%* and; in the assay with HDAC3 [1] (MCF7 tumor grown in vivo), 67%* and; with HDAC3 [1] (MDA-MB231 tumor grown in vivo), 65%* and; in the assay on HDAC3 [1] (SMMC7721 tumor grown in vivo), 66%* and. The IC50 with VEGFR1 was less than 90 µM; in the assay with mouse melanoma cells B16, 280 µM; with Akt it was less than 90 µM; in the assay on HDAC3 [2], less than 55 µM; in the assay with c-Met, less than 141 µM; in assay [3] (setting [4]) it was less than 100 µM. Moreover, the IC50 in assay [3] (setting [5]), in assay [3] (setting [6]), in assay [3] (setting [7]) and in assay [3] (setting [8]) was less than 100 µM throughout. In the assay on p21, the EC50 was less than 65 µM.
For the compound `CCNC(=O)CCC(NC(=O)c1cc2ccccc2oc1=O)C(=O)OC` (stereo not shown) [Compound Ia, methyl 5-ethylamino-5-oxo-2-(2-oxo-2H-benzopyran-3-carboxamido)pentanoate], the “decrease of HDAC3 enzyme activity/inhibition rate” value in the assay with HDAC3 [1] (SMMC7721 tumor grown in vivo) is 60%* and. The IC50 was less than 125 µM with VEGFR1; 145 µM in the assay with mouse melanoma cells B16; less than 125 µM with Akt; less than 75 µM with HDAC3 [2]; less than 160 µM with c-Met; less than 135 µM in assay [3] (Lewis lung cancer cells, EMSA, nuclear protein extracts, 48 h, read-out: Effective concentration for 50% inhibition of binding of nucleoprotein factor NF-kB (p65) and DNA). Also, the IC50 was less than 125 µM in assay [3] (setting [7]) and less than 135 µM in assay [3] (setting [8]). Moreover, in the assay with p21, the EC50 was less than 125 µM.
For the compound `CCNC(=O)CC[C@@H](NC(=O)c1cc2cc(Br)ccc2oc1=O)C(=O)OCC` [Compound Id, (R)-2-(6-Br-2-oxo-2H-benzopyran-3-carboxamido)-5-ethylamino-5-oxo-pentanoic acid ethyl ester], the “decrease of HDAC3 enzyme activity/inhibition rate” value in the assay on HDAC3 [1] (A549 tumor grown in vivo) was 71%* and; in the assay with HDAC3 [1] (MCF7 tumor grown in vivo), 60%* and; in the assay on HDAC3 [1] (MDA-MB231 tumor grown in vivo), 63%* and; in the assay with HDAC3 [1] (SMMC7721 tumor grown in vivo), 65%* and. The IC50 in the assay on VEGFR1 is less than 100 µM; with mouse melanoma cells B16 it was 120 µM; with Akt it was less than 100 µM; in the assay with HDAC3 [2] it was less than 65 µM; in the assay with c-Met it was less than 150 µM; in assay [3] (setting [4]), less than 110 µM. For the same compound, the IC50 in assay [3] (setting [5]) is less than 100 µM; in assay [3] (setting [6]) it was less than 100 µM; in assay [3] (setting [7]) it was less than 80 µM; in assay [3] (setting [8]), less than 120 µM. For the same compound, the EC50 with p21 is less than 100 µM.

The record behind these values is US9518038B2, “Condensation product of theanine derivative and carboxylic acid coumarin derivative, its intermediate, preparation method and use thereof” (SHANDONG YINGDONG YINGHAO BIOTECHNOLOGY, INC., priority 2012, dated 2016).
